# Entries after “also recorded” stand apart in the source; their conditions may differ.
# Legend:
# HDAC3:SMRT [1] = target: T1, HDAC3:SMRT (Homo sapiens, UniProt O15379+Q9Y618); experiment: Fluorescence anisotropy direct binding of 2-FAM-Ins(1,3,4,5,6)P5; conditions: inhibitor bound at the active site
# Procedure: When required, assays were performed in the presence of HDAC inhibitor (20 mM final concentration). Plates were mixed by shaking for 1 s, and measurements taken using a Victor X5 plate reader (Perkin Elmer) at room temperature with an excitation wavelength of 480 nm and an emission wavelength of 535 nm. Experiments were performed in triplicate and data were analysed using GraphPad Prism (version 6.0), Kd values were calculated by nonlinear curve fitting using a one-site binding (hyperbola) model (Y=Bmax*X/(Kd+X).
# HDAC3:SMRT complex = target: T2, HDAC3:SMRT complex (Homo sapiens, UniProt O15379+Q9Y618); experiment: Activation of HDAC3:SMRT deacetylase activity by inositol phosphates (BOC-Lys-AMC assay); assay type: biochemical; conditions: for Kd / HDAC3 activation relative to maximal Ins(1,4,5,6)P4-stimulated activity: BOC-Lys-AMC assay; for Kd: one-site binding fit of HDAC activity vs inositol phosphate concentration, read-out: Kdapp (apparent Kd from activation titration); for HDAC3 activation relative to maximal Ins(1,4,5,6)P4-stimulated activity: titration / maximal activation; for HDAC activity as percentage of maximal Ins(1,4,5,6)P4 activity: compound tested at 200 μM
# T2 construct: Full-length HDAC3, and residues 350–480 of SMRT were cloned into pcDNA3 vectors; residues 350–480 of SMRT were cloned into pcDNA3 vectors; FLAG tag with TEV protease cleavage site (cleaved yes); made in house; host or cells: HEK293F cells (co-transfection, pcDNA3)
# T2 sequence (O15379 whole entry, the tested form may be a part): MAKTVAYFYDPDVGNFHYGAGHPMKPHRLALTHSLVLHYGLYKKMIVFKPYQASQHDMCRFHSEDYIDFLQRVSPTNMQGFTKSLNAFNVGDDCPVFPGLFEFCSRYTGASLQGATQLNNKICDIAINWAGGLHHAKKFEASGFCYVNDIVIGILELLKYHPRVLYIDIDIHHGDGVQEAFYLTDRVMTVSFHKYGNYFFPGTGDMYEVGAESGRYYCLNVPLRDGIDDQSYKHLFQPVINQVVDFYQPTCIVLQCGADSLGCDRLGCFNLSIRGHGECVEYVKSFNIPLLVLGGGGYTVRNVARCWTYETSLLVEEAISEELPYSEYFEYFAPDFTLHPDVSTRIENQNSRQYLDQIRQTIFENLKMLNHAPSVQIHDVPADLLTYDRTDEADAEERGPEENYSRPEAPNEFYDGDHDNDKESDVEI
# T2 sequence (Q9Y618 350-480): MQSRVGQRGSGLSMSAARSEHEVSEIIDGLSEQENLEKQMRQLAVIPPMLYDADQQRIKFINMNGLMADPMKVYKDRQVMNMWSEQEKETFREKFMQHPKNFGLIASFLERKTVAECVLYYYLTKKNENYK
# Procedure: To understand the stereochemical basis underlying the activation of HDAC3 by inositol phosphates we investigated the ability of a range of inositol phosphates and derivatives to enhance the activity of HDAC3 in deacetylase assays. To achieve this we used an assay based on the complex of HDAC3 with an extended SMRT construct which is stable in the absence of inositol phosphate.
# (§1) HDAC activity of the protein complex was measured using an HDAC assay with a BOC-Lys-AMC substrate. 50 nM HDAC3:SMRT or 50 nM HDAC1:MTA1 was incubated with 100 μM BOC-Lys-AMC substrate in a final volume of 50 μl buffer A (50 mM Tris pH 7.5, 50 mM NaCl, 5% Glycerol), in a black 96-well plate for 30 min at 37 °C.
# (§2) To test the ability of inositol phosphates and derivatives to activate the complex, 50 nM HDAC3:SMRT (which had been stripped of its endogenous co-purified inositol phosphate) or 50 nM HDAC1:MTA1 was incubated with inositol phosphate or analogue for 30 min at 37 °C before the HDAC activity was measured. All measurements were performed in triplicate and data analysed using GraphPad Prism (version 6.0, GraphPad Software, Inc).
# HDAC1:MTA1 complex [2] = target: T3, HDAC1:MTA1 complex (Homo sapiens, UniProt Q13330+Q13547); experiment: Activation of HDAC1:MTA1 deacetylase activity by inositol phosphates (BOC-Lys-AMC assay); assay type: biochemical
# T3 construct: Full-length HDAC1 and residues 162–354 of MTA1 were cloned into pcDNA3 vectors; residues 162–354 of MTA1 were cloned into pcDNA3 vectors; FLAG tag with TEV protease cleavage site (cleaved yes); made in house; host or cells: HEK293F cells (co-transfection, pcDNA3)
# T3 sequence (Q13547 whole entry, the tested form may be a part): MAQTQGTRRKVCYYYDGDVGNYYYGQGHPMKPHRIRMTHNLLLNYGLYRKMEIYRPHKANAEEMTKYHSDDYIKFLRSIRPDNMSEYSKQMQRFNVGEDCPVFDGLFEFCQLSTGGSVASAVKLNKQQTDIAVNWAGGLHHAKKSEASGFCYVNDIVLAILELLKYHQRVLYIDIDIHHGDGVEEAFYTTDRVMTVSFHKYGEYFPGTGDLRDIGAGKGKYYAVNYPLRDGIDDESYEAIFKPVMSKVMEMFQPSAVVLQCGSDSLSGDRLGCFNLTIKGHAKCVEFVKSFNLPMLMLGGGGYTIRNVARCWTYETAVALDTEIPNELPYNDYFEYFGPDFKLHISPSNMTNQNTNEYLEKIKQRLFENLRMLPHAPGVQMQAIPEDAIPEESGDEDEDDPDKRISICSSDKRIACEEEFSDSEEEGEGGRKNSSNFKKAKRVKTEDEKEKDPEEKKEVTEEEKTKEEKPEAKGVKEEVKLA
# T3 sequence (Q13330 162-354): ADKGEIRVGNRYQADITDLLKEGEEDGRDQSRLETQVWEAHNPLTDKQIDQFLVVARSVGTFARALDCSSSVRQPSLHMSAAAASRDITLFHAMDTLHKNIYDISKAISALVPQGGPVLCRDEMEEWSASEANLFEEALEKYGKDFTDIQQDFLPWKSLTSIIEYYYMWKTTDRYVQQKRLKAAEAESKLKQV
# Procedure: as §1, §2
# HDAC1:MTA1 complex [3] = target: HDAC1:MTA1 complex (UniProt Q13547)
# HDAC1:MTA1 complex (UniProt Q13547), sequence (Q13547 whole entry, the tested form may be a part, one chain of several): as the sequence (Q13547 whole entry, the tested form may be a part) above
# HDAC3:SMRT [4] = target: T1, HDAC3:SMRT; experiment: Fluorescence anisotropy displacement of 2-FAM-Ins(1,3,4,5,6)P5; assay type: binding; set-up: Full-length HDAC3, and residues 350–480 of SMRT were cloned into pcDNA3 vectors; residues 350–480 of SMRT were cloned into pcDNA3 vectors; FLAG tag with TEV protease cleavage site (cleaved yes); made in house; host or cells: HEK293F cells (co-transfection, pcDNA3); conditions: read-out: IC50 displacement of 2-FAM-Ins(1,3,4,5,6)P5; fluorescence anisotropy competition
# Procedure: The concentration of protein was determined as that which gave 100% bound in the protein titration experiments. The data were analysed and IC50 values calculated using GraphPad Prism (version 6.0).
# T1 sequence (O15379 whole entry): as the sequence (O15379 whole entry, the tested form may be a part) above
# T1 sequence (Q9Y618 350-480): as the sequence (Q9Y618 350-480) above
Compound,Kd (HDAC3:SMRT complex) [µM],"HDAC3 activation relative to maximal Ins(1,4,5,6)P4-stimulated activity (HDAC3:SMRT complex)","HDAC activity as percentage of maximal Ins(1,4,5,6)P4 activity (HDAC3:SMRT complex)",further results
MS-275,–,–,–,"enhancement of the binding of 2-FAM-Ins(1,3,4,5,6)P5 to the allosteric site by inhibitor (HDAC3:SMRT [1]): threefold enhancement"
O=P(O)(O)OC1[C@@H](OP(=O)(O)O)[C@H](OP(=O)(O)O)C(O)[C@H](OP(=O)(O)O)[C@H]1OP(=O)(O)O (stereo partly drawn),5,"same degree as Ins(1,4,5,6)P4",–,"increase in apparent affinity compared with Ins(1,4,5,6)P4 (HDAC3:SMRT complex; ratio of apparent Kd values): twofold; activation of HDAC1:MTA1 complex (HDAC1:MTA1 complex [2]): can be activated; Kd (HDAC1:MTA1 complex [2]; read-out: Kdapp (apparent Kd from activation titration)): 2.6 µM"
"O=P(O)(O)Oc1ccc(OP(=O)(O)O)c(OP(=O)(O)O)c1OP(=O)(O)O [benzene 1,2,3,4-tetrakisphosphate]",–,–,fails to substantially activate the complex,–
O=P(O)(O)O[C@@H]1[C@@H](OP(=O)(O)OP(=O)(O)O)[C@H](OP(=O)(O)O)[C@@H](OP(=O)(O)O)[C@@H](O)[C@H]1OP(=O)(O)O [5-PP-InsP4],–,–,~60%,–
H4K16Hx (histone H4 residues 12-18 with hydroxamic acid functionality at K16) (from UniProt P62805 13-19) (peptide),–,–,–,inhibition of the deacetylase activity of HDAC1:MTA1 (IC50) (HDAC1:MTA1 complex [3]): 0.336 µM
O=C(CP(=O)(O)O)O[C@@H]1[C@@H](OP(=O)(O)O)[C@H](OP(=O)(O)O)[C@H](O)[C@H](OP(=O)(O)O)[C@H]1OP(=O)(O)O [2-OH-5-PA-InsP4],–,–,completely inert,–
"O=P(O)(O)O[C@H]1[C@H](OP(=O)(O)O)[C@@H](OP(=O)(O)O)[C@@H](O)[C@@H](O)[C@@H]1OP(=O)(O)O [Ins(3,4,5,6)P4]",41,–,–,–
"O=P(O)(O)O[C@H]1[C@H](OP(=O)(O)O)[C@H](O)[C@H](O)[C@@H](O)[C@@H]1OP(=O)(O)O [Ins(1,5,6)P3]",29,60%,–,–
"O=P(O)(O)O[C@@H]1C(O)[C@H](OP(=O)(O)O)[C@@H](OP(=O)(O)O)C(O)[C@H]1OP(=O)(O)O (stereo partly drawn) [Ins(1,3,4,6)P4]",–,unable to activate HDAC3; also recorded: do not activate the complex,–,IC50 (HDAC3:SMRT [4]): 1.5 µM

# From publication PMC4848466, “Insights into the activation mechanism of class I HDAC complexes by inositol phosphates” (Nature Communications, 2016)
